The subject of this test is 958667-338-R-J2-PDC tumor spheroids viability. Description: Anticancer human tumor 958667-338-R-J2-PDC patient-derived colon adenocarcinoma cell line growth inhibition [PI3K]. As to conditions: spheroids with HUVEC and MSC; for viability, T/C: stronger effect = lower value. The text has this:
Combinatorial screen of targeted agents with the PI3K inhibitors inavolisib, alpelisib, duvelisib, and copanlisib in multi-cell type tumor spheroids
A high-throughput screen of multi-cell type tumor spheroids was designed to identify active combinations of targeted small molecules and PI3K pathway inhibitors. Complex spheroids include a stromal component modeled by human endothelial cells (HUVEC) and fibroblasts modeled by human mesenchymal stem cells (MSCs). The concentration ranges selected for each drug and investigational agent were based upon clinically achievable concentrations if the clinical Cmax of the agent was known.
Compounds. The drugs and investigational agents: inavolisib (NSC800729), alpelisib (NSC765974), duvelisib (NSC772469), copanlisib (NSC816437), ipatasertib (NSC767898), afuresertib (NSC778305), talazoparib (NSC767125), sapanisertib (NSC764658), selumetinib (NSC741078), tovorafenib (DAY101, NSC766906), vemurafenib (NSC761431), ravoxertinib (NSC781343), sotorasib (NSC818433), MRTX1133 (NSC 836407), abemaciclib (NSC 768073), palbociclib (NSC758247), venetoclax (NSC 766270), SY5609 (NSC837396), enzalutamide (NSC755605), and darolutamide (NSC825331), were obtained from the National Cancer Institute (NCI) Developmental Therapeutics Program Chemical Repository. The FDA-approved anticancer drug set is available from the NCI Developmental Therapeutics Program. […] The stock solutions were prepared in dimethyl sulfoxide (DMSO, Sigma-Aldrich, St. Louis, MO, cat. D2650) at 800-fold the tested concentration and stored at -70 degrees C prior to their use. All drugs and investigational agents were tested over a range starting from a high concentration at or near the clinical Cmax and decreasing in half-log increments. If the clinical Cmax for an agent had not been determined, the highest concentration tested was 10 microM.
Cell Culture. All cells were maintained in an incubator at 37 degrees C and 5% CO2 with 95% humidity. The PDC lines were cultured according to standard operating procedures established by the NCI PDMR (https://pdmr.cancer.gov/sops/default.htm). All PDCs were thawed and cultured in Matrigel-coated flasks prepared with a working solution of 1X Ham's F-12 nutrient mix, without supplementation (Invitrogen, Waltham, MA, cat. 11765054), 100 U/mL penicillin-streptomycin (Invitrogen, cat. 15140122), and 2.5% Matrigel (Corning Inc., Corning, NY, cat. 354248) for the first three passages. The 354836-022-R-J1-PDC, 475296-252-R-J1-PDC, and 997726-040-R-J2-PDC lines were cultured in 6A media, which includes advanced DMEM/F-12 (Thermo Fisher Scientific, cat. 12634028), 10 mM HEPES (Thermo Fisher Scientific, cat. 15630080), 1X GlutaMAX supplement (Thermo Fisher Scientific, cat. 35050061), 0.1 mg/mL primocin (InvivoGen, San Diego, CA, cat. ant-pm-2), 10% defined fetal bovine serum, heat inactivated (HyClone Laboratories Inc., Logan, UT, cat. SH30070.03HI), 50% L-WRN conditioned media (ATCC, cat. CRL-3276), 1.25 mM N-Acetyl-L-cysteine (Sigma-Aldrich, cat. A9165), 10 mM nicotinamide (Sigma-Aldrich, cat. N0636), 1X B-27 supplement (Thermo Fisher Scientific, cat. 17504044), 1X N-2 supplement (Thermo Fisher Scientific, cat. 17502048), and 10 microM Y-27632 dihydrochloride (Tocris Bioscience, Bristol, United Kingdom, cat. 1254). The 624824-186-R-J2-PDC line was cultured in 6C/Colon 1B media, which includes all 6A media components plus 50 ng/mL human EGF recombinant protein (Thermo Fisher Scientific, cat. PHG0311). […]

“And” between values parts separate entries of the source, which are not always exact repeats. Identical values can stand only once.
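Further: spheroids exposed to compounds for seven days before readout.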

Turning to `CNC(=O)c1ccc(N2C(=S)N(c3ccc(C#N)c(C(F)(F)F)c3)C(=O)C2(C)C)cc1F`, the viability, T/C runs as follows: (compound 0.0316 µM) 110% [middle of 4 runs]; (compound 0.1 µM) 97% [middle of 4 runs]; (compound 1 µM) 112% and 103% (2×) and 100%; (compound 3.16 µM) 95.8% and 104% and 124% (2×); (compound 10 µM) 103% (2×) and 115% and 88.7%. Moreover, the IC50 (curve of compound) was above 10000 nM.

For the compound `CC(=O)c1c(C)c2cnc(Nc3ccc(N4CCNCC4)cn3)nc2n(C2CCCC2)c1=O` + COc1c(OCCCN2CCOCC2)ccc2c3n(c(=NC(=O)c4cnc(N)nc4)nc12)CCN3, the IC50 was above 100 nM (curve of first compound, second compound 0.00316 µM); above 100 nM (curve of first compound, second compound 0.01 µM); above 100 nM (curve of first compound, second compound 0.0316 µM); above 100 nM (curve of first compound, second compound 0.1 µM); below 0.316 nM (curve of first compound, second compound 0.316 µM); below 0.316 nM (curve of first compound, second compound 1 µM). Besides, the viability, T/C by setting is: (second compound 0.00316 µM, first compound 0.000316 µM) 103%; (second compound 0.00316 µM, first compound 0.001 µM) 101%; (second compound 0.00316 µM, first compound 0.00316 µM) 97.2%; (second compound 0.00316 µM, first compound 0.01 µM) 98.2%; (second compound 0.00316 µM, first compound 0.0316 µM) 108%; (second compound 0.00316 µM, first compound 0.1 µM) 62.8%. For the same compound, the viability, T/C was 82.9% (second compound 0.01 µM, first compound 0.000316 µM); 67.7% (second compound 0.01 µM, first compound 0.001 µM); 90.8% (second compound 0.01 µM, first compound 0.00316 µM); 79.1% (second compound 0.01 µM, first compound 0.01 µM); 83.3% (second compound 0.01 µM, first compound 0.0316 µM); 69.9% (second compound 0.01 µM, first compound 0.1 µM). Besides, the viability, T/C (second compound 0.0316 µM, first compound 0.000316 µM) was 75.7%; the viability, T/C (second compound 0.0316 µM, first compound 0.001 µM) is 94.8%; the viability, T/C (second compound 0.0316 µM, first compound 0.00316 µM) is 75.5%; the viability, T/C (second compound 0.0316 µM, first compound 0.01 µM) was 56.7%; the viability, T/C (second compound 0.0316 µM, first compound 0.0316 µM) is 67.3%; the viability, T/C (second compound 0.0316 µM, first compound 0.1 µM) is 56.3%. In addition, the viability, T/C (second compound 0.1 µM, first compound 0.000316 µM) was 64.9%; the viability, T/C (second compound 0.1 µM, first compound 0.001 µM) was 61.8%; the viability, T/C (second compound 0.1 µM, first compound 0.00316 µM) was 51.5%; the viability, T/C (second compound 0.1 µM, first compound 0.01 µM) was 70.2%; the viability, T/C (second compound 0.1 µM, first compound 0.0316 µM) was 62.7%; the viability, T/C (second compound 0.1 µM, first compound 0.1 µM) was 50.7%. Moreover, the viability, T/C by setting is: (second compound 0.316 µM, first compound 0.000316 µM) 37.2%; (second compound 0.316 µM, first compound 0.001 µM) 42.5%; (second compound 0.316 µM, first compound 0.00316 µM) 49.1%; (second compound 0.316 µM, first compound 0.01 µM) 42.9%; (second compound 0.316 µM, first compound 0.0316 µM) 35%; (second compound 0.316 µM, first compound 0.1 µM) 26.6%. Also, the viability, T/C (second compound 1 µM, first compound 0.000316 µM) is 17.8%; the viability, T/C (second compound 1 µM, first compound 0.001 µM) is 20.3%; the viability, T/C (second compound 1 µM, first compound 0.00316 µM) is 18%; the viability, T/C (second compound 1 µM, first compound 0.01 µM) is 20.3%; the viability, T/C (second compound 1 µM, first compound 0.0316 µM) was 22.3%; the viability, T/C (second compound 1 µM, first compound 0.1 µM) is 17.2%.

Usually viability, T/C stands for the result in the treated group divided by that in the control group, in per cent. Usually IC50 stands for the concentration needed to halve the response being measured.

The record behind these values is PubChem BioAssay AID1963963 (Molecular Pharmacology Branch, DTP, NCI, 2024).
